Source: ChEMBL document CHEMBL4177529, “Penicilones A-D, Anti-MRSA Azaphilones from the Marine-Derived Fungus Penicillium janthinellum HK1-6” (2017)
Values after ≈ are worked out from the molar mass of the structure shown.

Assays:
Enterococcus faecalis = assay: microbe, parasite or virus in culture; format: functional; details: ATCC 51299
Description: Antibacterial activity against vancomycin-susceptible Enterococcus faecalis ATCC 51299 by XTT assay

Escherichia coli = assay: Antibacterial activity against Escherichia coli ATCC 25922 by XTT assay; format: functional
Staphylococcus aureus [1] = assay: Antibacterial activity against methicillin-resistant Staphylococcus aureus ATCC 43300 by XTT assay
Staphylococcus aureus [2] = assay: Antibacterial activity against methicillin-resistant Staphylococcus aureus ATCC 33591 by XTT assay
Enterococcus faecium = assay: Antibacterial activity against vancomycin-susceptible Enterococcus faecium ATCC 35667 by XTT assay
Staphylococcus aureus [3] = assay: Antibacterial activity against methicillin-susceptible Staphylococcus aureus ATCC 25923 by XTT assay
Staphylococcus aureus [4] = assay: Antibacterial activity against methicillin-susceptible Staphylococcus aureus ATCC 29213 by XTT assay

SMILES	MIC (Enterococcus faecalis) [µg/mL]	MIC (Escherichia coli) [µg/mL]	MIC (Staphylococcus aureus [1]) [µg/mL]	MIC (Staphylococcus aureus [2]) [µg/mL]	MIC (Enterococcus faecium) [µg/mL]	MIC (Staphylococcus aureus [3]) [µg/mL]	MIC (Staphylococcus aureus [4]) [µg/mL]
CCCCCCC(C)/C=C(\C)C(=O)O[C@@]1(C)C(=O)C2=COC(c3c(C)cccc3O)=CC2=C(Cl)C1=O (stereo partly specified)	6.25 (≈ 12.2 µM)	> 50	6.25 (≈ 12.2 µM)	6.25 (≈ 12.2 µM)	12.5 (≈ 24.4 µM)	12.5 (≈ 24.4 µM)	3.13 (≈ 6.1 µM)
CN[C@H](CC(C)C)C(=O)N[C@H]1C(=O)N[C@@H](CC(N)=O)C(=O)N[C@H]2C(=O)N[C@H]3C(=O)N[C@H](C(=O)N[C@H](C(=O)O)c4cc(O)cc(O)c4-c4cc3ccc4O)[C@H](O)c3ccc(c(Cl)c3)Oc3cc2cc(c3O[C@@H]2O[C@H](CO)[C@@H](O)[C@H](O)[C@H]2O[C@H]2C[C@](C)(N)[C@H](O)[C@H](C)O2)Oc2ccc(cc2Cl)[C@H]1O.Cl [VANCOMYCIN HYDROCHLORIDE]	6.25	> 100	0.39	0.78	0.39	1.56	0.39
CCCCCCC(C)/C=C(\C)C(=O)O[C@@]1(C)C(=O)C=C2C=C(c3c(C)cccc3O)OC=C2C1=O (stereo partly specified)	3.13 (≈ 6.54 µM)	> 50	3.13 (≈ 6.54 µM)	3.13 (≈ 6.54 µM)	3.13 (≈ 6.54 µM)	3.13 (≈ 6.54 µM)	3.13 (≈ 6.54 µM)
CCCCCCC(C)/C=C(\C)C(=O)O[C@@]1(C)C(=O)C=C2C=C(C3=C(C)C[C@@H](O)CC3=O)OC=C2C1=O (stereo partly specified)	> 50	> 50	> 50	> 50	> 50	> 50	> 50
Cc1cccc(O)c1C1=CC2=CC(=O)[C@](C)(O)C(=O)C2=CO1	> 50	> 50	> 50	> 50	> 50	> 50	> 50
CCCCCCC(C)/C=C(\C)C(=O)O[C@@]1(C)C(=O)C2=COC(C3=C(C)CC(O)CC3=O)=CC2=C(Cl)C1=O (stereo partly specified)	12.5 (≈ 23.5 µM)	> 50	6.25 (≈ 11.8 µM)	6.25 (≈ 11.8 µM)	12.5 (≈ 23.5 µM)	12.5 (≈ 23.5 µM)	6.25 (≈ 11.8 µM)
Cc1onc(-c2ccccc2)c1C(=O)N[C@@H]1C(=O)N2[C@@H]1SC(C)(C)[C@@H]2C(=O)[O-].[Na+]	50	> 100	> 100	> 100	> 100	0.78	3.13
Cc1cccc(O)c1C1=CC2=C(Cl)C(=O)[C@@](C)(O)C(=O)C2=CO1	50 (≈ 150 µM)	> 50	> 50	50 (≈ 150 µM)	50 (≈ 150 µM)	25 (≈ 75.1 µM)	> 50
